Experimental findings from US20160075689A1, “POLYMERASE, ENDONUCLEASE, AND HELICASE INHIBITORS AND METHODS OF USING THEREOF” (THE BOARD OF TRUSTEES OF THE UNIVERSITY OF ARKANSAS, priority 2013, published 2016) are described below.

Values joined by “and” are separate entries in the source; they are usually repeats but may differ in a detail not shown here. Equal values may be shown once.

One test has as its target NS3-4A (Hepatitis C virus genotype 1b, UniProt P26663). Put plainly: NS3 protease activity assay. It counts as biochemical, HCV. As to conditions: 25 μM compound, 50 nM NS3-4A, 100 nM substrate. On the procedure: The protease activity of NS3 was analyzed in the presence of 25 μM ITBA-3-79, ITBA-3-82 or ITBA-3-85 by using 50 nM NS3-4A and 100 nM substrate (Ac-Asp-Glu-Asp-EDANS-Glu-Glu-Abu-L-Lactoyl-Ser-Lys DABCYL-NH2). The emission spectra of EDANS and the absorption spectra of DABCYL overlap making the peptide internally quenched. Cleaving of the substrate by the protease results in an increase in fluorescence that can be measured (λex−355 nm; λem, −500 nm). Telapravir (10 μM) was used as a positive control.

The next test deals with T1, NS3 helicase (Hepatitis C virus genotype 1b, UniProt P26663).
T1 construct: analyze the helicase activity of NS3 helicase in the presence of the compounds; made in house
T1 sequence (P26663 1027-1657): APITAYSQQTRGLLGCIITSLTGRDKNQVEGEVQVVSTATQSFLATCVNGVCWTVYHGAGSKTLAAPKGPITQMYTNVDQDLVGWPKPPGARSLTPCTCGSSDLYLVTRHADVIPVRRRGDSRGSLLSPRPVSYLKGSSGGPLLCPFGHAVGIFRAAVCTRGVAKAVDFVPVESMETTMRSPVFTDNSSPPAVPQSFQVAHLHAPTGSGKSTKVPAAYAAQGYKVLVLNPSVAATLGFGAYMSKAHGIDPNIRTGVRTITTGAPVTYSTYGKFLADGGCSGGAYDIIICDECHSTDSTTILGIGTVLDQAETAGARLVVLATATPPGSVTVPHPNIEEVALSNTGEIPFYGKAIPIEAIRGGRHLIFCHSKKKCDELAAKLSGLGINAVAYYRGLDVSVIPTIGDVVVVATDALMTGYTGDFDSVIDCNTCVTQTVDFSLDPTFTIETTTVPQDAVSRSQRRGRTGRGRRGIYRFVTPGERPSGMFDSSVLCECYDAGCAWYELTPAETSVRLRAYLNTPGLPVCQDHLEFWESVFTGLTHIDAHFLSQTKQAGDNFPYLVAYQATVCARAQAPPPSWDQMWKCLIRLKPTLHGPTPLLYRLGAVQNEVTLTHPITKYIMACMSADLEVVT
As to the kind of experiment: Gel-based helicase assay. It counts as biochemical, HCV. As to conditions: standard helicase assay. On the procedure:
Benchtop unwinding assays were performed to analyze the helicase activity of NS3 helicase in the presence of the compounds. The unwinding reaction was initiated by mixing the right (N53, compound, assay buffer) and left (radiolabeled substrate, ATP, assay buffer) reactions, which was then quenched. The ssDNA product formed over time is separated from dsDNA substrate by 20% native PAGE. The ratio of dsDNA substrate to ssDNA product is quantified using ImageQuant and the fraction of substrate unwound at each time-point is plotted as a function of time using Kaleidagraph software.

In another test the target is T2, HCV NS3 helicase (Hepatitis C virus genotype 1b, UniProt P26663).
T2 construct: analyze the helicase activity of NS3 helicase in the presence of the compounds; made in house
T2 sequence (P26663 1027-1657): as above
Put plainly: Fluorescence-based helicase assay. Type of test: biochemical. The note with it: IC50 for inhibition of NS3 helicase, mean ± standard deviation of three data sets. On the procedure:
A library of compounds was screened using a previously validated quantitative assay that measures helicase activity over time. The assay relies upon helicase-catalyzed displacement of a fluorescently-labeled oligonucleotide (FIG. 13A). The concentration of enzyme and compounds used was 250 nM and 20 μM respectively. The experiments were performed in triplicate. […] Three potential helicase inhibitors were identified using the fluorescence based assay. […] The inhibitor compounds identified in our screen were ITBA-3-79, ITBA-3-82 and ITBA-3-85 (FIG. 14A). […] The IC50 value for ITBA-3-79, ITBA-3-82 and ITBA-3-85-mediated inhibition of NS3 helicase ranged˜20 μM (FIG. 14C). The ATPase activity of NS3 (50 μM) was analyzed in the presence of ITBA-3-79, ITBA-3-82 and ITBA-3-85 using a coupled spectrophotometric assay (Raney and Benkovic 1995, (FIG. 15). The protease activity of NS3 was analyzed in the presence of ITBA-3-79, ITBA-3-82 and ITBA-3-85 by using 50 nM NS3-4A and 100 nM substrate (Ac-Asp-Glu-Asp-EDANS-Glu-Glu-Abu-L-Lactoyl-Ser-Lys DABCYL-NH2, FIG. 15. The NS3 helicase activity was analyzed in the presence of 25 μM ITBA-3-79, ITBA-3-82 and ITBA-3-85 (FIG. 16).
A fluorescence based quantitative assay that measures helicase activity over time was employed to screen the compounds. The concentration of enzyme and compounds used was 250 nM and 20 μM respectively. Helicase catalyzes the unwinding of a FAM-labeled dsDNA and the resulting increase in fluorescence is plotted (λex-485 nm; λem, −528 nm). The slope of the initial part of the plot was used to calculate the percentage helicase activity. […] The IC50 value for ITBA-3-79, ITBA-3-82 and ITBA-3-85-mediated inhibition of NS3 helicase was determined using the same assay.

In a further test the target is T3, EndoG (Homo sapiens, UniProt Q14249).
T3 sequence (Q14249 49-297): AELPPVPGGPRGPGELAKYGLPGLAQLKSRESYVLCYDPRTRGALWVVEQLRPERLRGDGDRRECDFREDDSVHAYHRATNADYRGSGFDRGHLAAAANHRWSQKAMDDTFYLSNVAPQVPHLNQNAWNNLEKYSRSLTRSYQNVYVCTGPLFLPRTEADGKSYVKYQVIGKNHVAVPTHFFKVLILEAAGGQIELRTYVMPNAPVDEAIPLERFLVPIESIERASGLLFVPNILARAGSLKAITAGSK
As to the kind of experiment: Plasmid incision assay. Type of test: biochemical. The note with it: agarose gel, FIG. 9. On the procedure:
A reaction mixture was prepared containing 0.5 μg pECFP plasmid DNA, 2 mM CaCl2, 5 mM MgCl2, 10 mM Tris-HCl, pH 7.4, 0.5 mM dithiothreitol. The test compound [50 ng in DMSO (1 μl)] was added. Recombinant EndoG was then added to the final concentration of 200 ng/ml and the reaction was incubated for 1 h at 37° C. The reaction was terminated by adding 2 μl of 10 mM Tris-HCl, pH 7.4, 1% SDS, 25 mM EDTA, 7.2 mM bromophenol blue. The samples were run in 1% agarose gel in Tris-acetate-EDTA buffer (40 mM Tris, 20 mM acetic acid, 1 mM EDTA, pH 8), at 7 V/cm for 35 min, and DNA was stained with ethidium bromide. An EagleEye scanning densitometer (Stratagene, La Jolla, Calif.) was utilized to quantify the relative amount of endonuclease-treated plasmid DNA present in a covalently-closed circular (supercoiled) DNA, open circular DNA, or linear DNA, or in a digested form.

NS3-4A, sequence (P26663 1027-1657): as the sequence (P26663 1027-1657) above
NS3-4A, sequence (P26663 1658-1711): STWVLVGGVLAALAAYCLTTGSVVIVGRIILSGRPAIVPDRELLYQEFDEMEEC

Turning to `O=C1NC(=S)NC(=O)C1=Cc1cn(C(=O)c2ccc3ccccc3c2)c2ccccc12` [ITBA-3-79], at NS3-4A, the NS3 protease activity result is given as “do not block protease activity”. Besides, the “NS3 helicase activity, gel electrophoresis” value on NS3 helicase is recorded as “confirmed the inhibition”. Further, the IC50 against HCV NS3 helicase is ~20 µM and 21.6 µM.
As for `COc1ccc2c(c1)c(C=C1C(=O)NC(=S)NC1=O)cn2C(=O)c1cccc2ccccc12` [ITBA-3-85], the NS3 protease activity result on NS3-4A is given as “do not block protease activity”. For the same molecule, the “NS3 helicase activity, gel electrophoresis” value at NS3 helicase is reported as “confirmed the inhibition”. The IC50 against HCV NS3 helicase is ~20 µM and 23.5 µM.
For `[Cl-].[Cl-].[Zn+2]` [ZnCl2, reference compound], on EndoG, the “protection of supercoiled plasmid DNA from degradation by EndoG” value is “inhibited”.

By IC50 is commonly meant the point on the concentration scale where inhibition reaches its midpoint. A lower IC50 goes with greater potency in that assay.
